Results from patent US20210137935A1, “CORTICOTROPIN RELEASING FACTOR RECEPTOR ANTAGONISTS” (Spruce Biosciences, Inc., priority 2017, published 2021).
Values after ≈ are worked out from the molar mass of the structure shown.

Key:
[1] = system: Androstenedione; experiment: Phase 2 study in adults with classic CAH: Androstenedione; assay type: in vivo, human; conditions: patients with classic CAH, at various doses
From the text: Cohort A of the Phase 2 Study includes a 6-week, multiple-dose, dose escalation study of Compound 1 for the treatment of adults with classic CAH. After screening, eligible patients will be enrolled into a 6-week treatment period followed by a 4-week washout/safety follow-up period.
This cohort will be conducted in approximately 9 patients, who will receive Compound 1 daily for up to 6 weeks. Compound 1 will be administered as an oral daily dose. Patients will undergo titration of Compound 1 through three escalating dosage strengths at 2-week intervals. Patients will have overnight PK/PD assessments performed at baseline, which include an pre-dose overnight assessment and a post-dose overnight assessment for PK/PD following administration of the first dose. At the end of each 2-week dosing period, patients will return for single overnight visits for steady-state PK/PD assessments. A follow-up outpatient visit will occur 30 days after their last dose. Upon completion of the initial cohort (Cohort A), the study will proceed to a multiple ascending dose (MAD) design with up to 3 sequential cohorts (Cohorts B, C, and D) to further evaluate the safety, PK, and PD of various SPR001 dosing regimens and to identify an optimal dose regimen. Each cohort will undergo a 2-week run-in period, a 2-week treatment period, and a 30-day washout and safety follow-up period. During the run-in period, which will occur during screening, subjects will document in a paper diary each dose of glucocorticoid medication taken, the time of each meal, and the time they went to bed and woke up each day, to ensure compliance with background glucocorticoid regimens and the stability of their daily routine.
• 3. To explore the dose(s) of Compound 1 that cause pharmacodynamics changes in plasma concentrations of ACTH, androstenedione, and testosterone, as measured by the absolute and percent change from baseline by dose. • 4. To determine pharmacokinetics of Compound 1 in subjects with CAH. • 5. To explore potential relationships between pharmacodynamics and pharmacokinetics. […]

[2] = Study 2 Part A: multiple-dose (14 days) pharmacokinetics in healthy adult volunteers; assay type: in vivo, human; conditions: for Cmax: fed; for Effective t1/2: half-life calculated by accumulation ratio; for Tmax: median; for WT-norm Claa/F: weight normalized
Method: The 2-part multiple-dose study, Study 2, determined the safety and tolerability of repeated daily doses of Compound 1 and investigated the effects on biomarkers of relevance for the treatment of alcohol dependence.
PK were also evaluated in the multiple-dose, dose-escalation study, Study 2. In Part A of the study, subjects were divided into 3 cohorts and received 50, 150, or 200 mg Compound 1 or placebo for 14 consecutive days (at least 6 subjects received Compound 1 and 2 subjects received placebo in each cohort). […] All dosing occurred in the fed state. An assessment of diurnal cortisol levels, plus when under conditions of glucose clamp, were also carried out both prior to and during the dosing period.
Consistent with the single-dose study (Study 1), concentrations appeared to decline in a bi-exponential manner, characterized by a rapid decrease within the first 24 hours. […] The Tmax appeared to be consistent across doses. Overall half-lives, weight normalized CL/F and V/F were consistent for 150 and 200 mg. However, the values for these latter 2 parameters were almost doubled at the 50-mg dose level. Variability (CV %) for apparent clearance and volume of distribution were large and not reduced with weight-normalization.
Table 8 presents the results of the dose proportionality assessment for the AUC0-24 and Cmax over the tested dose range.

[3] = Solubility in different aqueous media (24 hour at room temperature); assay type: physicochemical
[4] = 50 mg daily, Day 14, geometric mean
[5] = 150 mg daily, Day 14, geometric mean
[6] = 200 mg daily, Day 14, geometric mean

In the case of `CCC(CC)c1cc(C)nc2c(-c3sc(N4CCOCC4)nc3Cl)c(C)nn12` [Compound 1, 3-(4-Chloro-2-(morpholin-4-yl)thiazol-5-yl)-7-(1-ethylpropyl)-2,5-dimethylpyrazolo(1,5-a)pyrimidine], the “subjects with reduction in Androstenedione” value [1] is reported as 100%, the Cmax [2, 4] is reported as 50.3 ng/mL and the AUC0-24 h [2, 4] is reported as 273 ng·h/mL. The “AUC0-∞” value [2, 4] was 980 ng·h/mL, the CLaa/F [2, 4] was 183 L/h and the Cavg [2, 4] was 11.4 ng/mL. For the same molecule, the “Effective t1/2” value [2, 4] was 37.7 h, the Tmax ([2]; 50 mg daily, Day 14) was 5.00 h and the “WT-norm Claa/F” value [2, 4] was 48 mL/min/kg. For the same molecule, the “RA (accumulation ratio, Day 14 AUC0-24/Day 1 AUC0-24)” value ([2]; 50 mg daily, geometric mean) was 2.80, the Cmax ([2]; 50 mg, Day 1, geometric mean) was 22.7 ng/mL and the AUC0-24 h ([2]; 50 mg, Day 1, geometric mean) was 97.6 ng·h/mL. For the same molecule, the Tmax ([2]; 50 mg, Day 1) was 4.52 h, the Cmax [2, 5] was 222 ng/mL and the AUC0-24 h [2, 5] was 1480 ng·h/mL. The “AUC0-∞” value [2, 5] was 4680 ng·h/mL, the CLaa/F [2, 5] was 101 L/h and the Cavg [2, 5] was 61.7 ng/mL. The “Effective t1/2” value [2, 5] was 32.7 h, the Tmax ([2]; 150 mg daily, Day 14) was 5.00 h and the “WT-norm Claa/F” value [2, 5] was 23.7 mL/min/kg. For the same molecule, the “RA (accumulation ratio, Day 14 AUC0-24/Day 1 AUC0-24)” value ([2]; 150 mg daily, geometric mean) was 2.51, the Cmax ([2]; 150 mg, Day 1, geometric mean) was 127 ng/mL and the AUC0-24 h ([2]; 150 mg, Day 1, geometric mean) was 590 ng·h/mL. The Tmax ([2]; 150 mg, Day 1) was 5.00 h, the Cmax [2, 6] was 314 ng/mL and the AUC0-24 h [2, 6] was 2040 ng·h/mL. The “AUC0-∞” value [2, 6] was 5660 ng·h/mL, the CLaa/F [2, 6] was 98 L/h and the Cavg [2, 6] was 85.0 ng/mL. For the same molecule, the “Effective t1/2” value [2, 6] was 52.0 h, the Tmax ([2]; 200 mg daily, Day 14) was 5.00 h and the “WT-norm Claa/F” value [2, 6] was 25 mL/min/kg. The “RA (accumulation ratio, Day 14 AUC0-24/Day 1 AUC0-24)” value ([2]; 200 mg daily, geometric mean) was 3.65, the Cmax ([2]; 200 mg, Day 1, geometric mean) was 143 ng/mL and the AUC0-24 h ([2]; 200 mg, Day 1, geometric mean) was 559 ng·h/mL. The Tmax ([2]; 200 mg, Day 1) was 5.00 h, the Vd/F at 14 days ([2]; human, plasma, oral, 50 mg daily, Day 14, geometric mean, read-out: Vz/F) was 33500 L and the “Solubility Description” value ([3]; 0.001N HCl, equilibrium pH 3.36) was “Insoluble”. The “Solubility Description” value ([3]; 0.01N HCl, equilibrium pH 2.06) was “Insoluble”, the “Solubility Description” value ([3]; 0.1N HCl, equilibrium pH 1.06) was “insoluble” and the “Solubility Description” value ([3]; 0.1N NaOH, equilibrium pH 11.65) was “Insoluble”. The “Solubility Description” value ([3]; FaSSIF, equilibrium pH 5.16) was “insoluble”, the “Solubility Description” value ([3]; FaSSIF, equilibrium pH 6.73) was “Insoluble” and the “Solubility Description” value ([3]; SGF, equilibrium pH 2.25) was “Insoluble”. For the same molecule, the “Solubility Description” value ([3]; Water, equilibrium pH 7.78) was “insoluble”, the “Solubility Description” value ([3]; pH 4.5 Acetate (USP), equilibrium pH 4.65) was “Insoluble” and the “Solubility Description” value ([3]; pH 6.0 Phosphate (USP), equilibrium pH 6.08) was “Insoluble”. For the same molecule, the “Solubility Description” value ([3]; pH 7.5 Phosphate (USP), equilibrium pH 7.57) was “Insoluble”, the Solubility ([3]; pH 7.5 Phosphate (USP), equilibrium pH 7.57, n = 2, 24 hour, room temperature) was 0.6 µg/mL (≈ 1.43 µM) and the solubility at 24 h ([3]; water, thermodynamic from solid) was less than 2 µg/mL.
